Test results: publication PMC8208167 (Applied and Environmental Microbiology, 2021)

Assays:
biuret hydrolase (BiuH) = biuret hydrolase (BiuH) (Herbaspirillum sp. BH-1, UniProt A0A2N6JFV5); test: ammonia release, Berthelot reaction; assay type: biochemical; conditions: pH […], sodium phosphate; turnover
[1] = test system: guanylurea hydrolase (GuuH); test: ammonia release, Berthelot reaction; assay type: biochemical, Ectopseudomonas mendocina; conditions: read-out: Exptl determination; 125 mM sodium phosphate, pH 8.0 (optimum), room temperature

Chain of biuret hydrolase (BiuH) (A0A2N6JFV5 1-231): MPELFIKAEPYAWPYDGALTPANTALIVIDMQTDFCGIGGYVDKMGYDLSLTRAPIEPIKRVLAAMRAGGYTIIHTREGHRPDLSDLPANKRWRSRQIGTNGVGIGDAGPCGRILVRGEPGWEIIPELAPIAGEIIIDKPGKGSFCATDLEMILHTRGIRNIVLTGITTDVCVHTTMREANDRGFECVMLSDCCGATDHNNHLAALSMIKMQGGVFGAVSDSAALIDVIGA

NC(=O)NC(N)=O [biuret]
activity (biuret hydrolase (BiuH)): diminished activity with biuret compared to that of the wild type

N=C(N)NC(N)=O [guanylurea]
Km [1]: 16 µM
